# Reference: patent US8114862B2, “TGR5 modulators and methods of use thereof” (Intercept Pharmaceuticals, Inc., priority 2008, dated 2012)
# Like-named read-outs stand apart in the source and are kept apart here. Marks after values point to notes of the source that are not given here.
# Tests used:
# in vitro [1] = conditions: human, s9
# diet-induced obese mice = conditions: 0.5% w/w in diet; cited from earlier work
# LXRα = target: T1, LXRα (Homo sapiens, UniProt Q13133); experiment: LXR coactivator recruitment (alphascreen); type: biochemical
# T1 sequence (Q13133 1-447): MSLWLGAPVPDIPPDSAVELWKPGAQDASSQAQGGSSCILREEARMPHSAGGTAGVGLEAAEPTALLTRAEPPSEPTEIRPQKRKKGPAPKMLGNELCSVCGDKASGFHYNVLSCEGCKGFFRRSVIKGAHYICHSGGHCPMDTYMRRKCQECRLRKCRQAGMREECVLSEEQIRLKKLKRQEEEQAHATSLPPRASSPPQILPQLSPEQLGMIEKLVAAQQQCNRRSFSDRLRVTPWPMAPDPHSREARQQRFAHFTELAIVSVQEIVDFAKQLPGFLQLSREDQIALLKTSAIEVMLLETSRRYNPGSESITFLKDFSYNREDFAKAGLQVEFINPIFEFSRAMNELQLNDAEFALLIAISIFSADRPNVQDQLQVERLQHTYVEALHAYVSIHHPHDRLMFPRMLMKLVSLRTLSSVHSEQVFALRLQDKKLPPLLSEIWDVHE
# [2] = Choleretic effect (bile flow) in bile fistula rat, id and iv infusion; type: in vivo; conditions: for SV0: maximum bile secretion rate: 1 (μmol/min)/kg bw over 1 h
# FXR = target: T2, FXR (Homo sapiens, UniProt Q96RI1); experiment: Alphascreen coactivator recruitment assay; type: biochemical; design: 10 nM of purified GST-tagged FXR-LBD protein; conditions: Table 8
# T2 sequence (Q96RI1 262-486 limits assumed): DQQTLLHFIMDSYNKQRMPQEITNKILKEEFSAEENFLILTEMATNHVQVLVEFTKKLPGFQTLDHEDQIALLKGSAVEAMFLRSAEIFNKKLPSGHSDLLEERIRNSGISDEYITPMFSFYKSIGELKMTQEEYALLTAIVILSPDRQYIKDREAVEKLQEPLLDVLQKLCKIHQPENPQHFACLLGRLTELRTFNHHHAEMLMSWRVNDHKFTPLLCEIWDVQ
# CAR = target: T3, CAR (Homo sapiens, UniProt Q14994); experiment: CAR coactivator recruitment (Lanthascreen); type: biochemical
# T3 construct: purchased Invitrogen
# T3 sequence (Q14994 109-352 limits assumed): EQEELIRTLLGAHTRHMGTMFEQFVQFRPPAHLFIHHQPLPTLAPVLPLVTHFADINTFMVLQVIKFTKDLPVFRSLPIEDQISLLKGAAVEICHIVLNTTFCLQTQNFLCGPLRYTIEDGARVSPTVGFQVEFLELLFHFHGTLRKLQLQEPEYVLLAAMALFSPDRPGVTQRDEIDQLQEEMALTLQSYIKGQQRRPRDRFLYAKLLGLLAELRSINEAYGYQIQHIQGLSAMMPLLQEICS
# Method: CAR: Coactivator Recruitment (Lanthascreen)
# Lanthascreen assay (Invitrogen) was used for nulear receptor selectivity assay. The kit uses a terbium-labeled anti-GST antibody, a fluorescein-labeled coactivator peptide, and a NR ligand-binding domain that is tagged with glutathione-S-transferase (GST) in a homogenous mix-and-read assay format. […] Following 1 hour incubation in the dark, TR-FRET measurements were made in the Envision. […] The data was analyzed using GraphPad Prism using the sigmoidal curve equation with variable slope to obtain EC50 values.
# bovine serum albumin [3] = target: T4, bovine serum albumin (Bos taurus, UniProt P02769); experiment: Albumin binding by equilibrium dialysis; type: in vitro ADME; conditions: 100 μM BA in 5% bovine serum albumin-saline, pH 7.2
# T4 sequence (P02769 25-607): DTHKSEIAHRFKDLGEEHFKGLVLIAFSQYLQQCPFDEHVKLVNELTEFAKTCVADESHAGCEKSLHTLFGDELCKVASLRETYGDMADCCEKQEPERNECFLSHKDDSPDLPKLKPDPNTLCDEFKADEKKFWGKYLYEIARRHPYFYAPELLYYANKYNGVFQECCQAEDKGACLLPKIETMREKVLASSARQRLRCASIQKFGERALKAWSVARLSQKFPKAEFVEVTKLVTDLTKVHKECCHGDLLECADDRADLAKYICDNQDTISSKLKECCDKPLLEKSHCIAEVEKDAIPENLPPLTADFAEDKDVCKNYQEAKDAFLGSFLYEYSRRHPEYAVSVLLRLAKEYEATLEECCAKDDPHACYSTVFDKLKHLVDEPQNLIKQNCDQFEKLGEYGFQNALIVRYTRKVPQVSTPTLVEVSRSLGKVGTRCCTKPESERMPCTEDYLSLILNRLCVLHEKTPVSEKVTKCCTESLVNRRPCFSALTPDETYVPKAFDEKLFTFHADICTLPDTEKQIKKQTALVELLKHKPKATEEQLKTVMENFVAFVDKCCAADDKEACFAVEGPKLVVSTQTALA
# Method: The extent of albumin binding was evaluated by equilibrium dialysis at a fixed BA-albumin ratio. BA was dissolved at a concentration of 100 μM in 5% bovine serum albumin-saline solution (pH 7.2) and left to stand for 24 h at 25° C. Two milliliters of this solution was dialyzed in cellulose sacs having a molecular weight cut-off of 12-14,000 against 25 ml of saline solution. The system was equilibrated by mechanical gently shaking for 72 h at 25° C. BA concentrations of the dialyzed solution (corresponding to the free unbound fraction) and of the starting solution were determined with HPLC-ESI-MS/MS in the same conditions of the previous analysis.
# The percent of albumin binding was calculate from the initial BA concentration and from the unbound concentration in the dialyzed fraction.
# VDR = target: T5, VDR (Homo sapiens, UniProt P11473); experiment: VDR coactivator recruitment assay
# T5 sequence (P11473 127-423 limits assumed): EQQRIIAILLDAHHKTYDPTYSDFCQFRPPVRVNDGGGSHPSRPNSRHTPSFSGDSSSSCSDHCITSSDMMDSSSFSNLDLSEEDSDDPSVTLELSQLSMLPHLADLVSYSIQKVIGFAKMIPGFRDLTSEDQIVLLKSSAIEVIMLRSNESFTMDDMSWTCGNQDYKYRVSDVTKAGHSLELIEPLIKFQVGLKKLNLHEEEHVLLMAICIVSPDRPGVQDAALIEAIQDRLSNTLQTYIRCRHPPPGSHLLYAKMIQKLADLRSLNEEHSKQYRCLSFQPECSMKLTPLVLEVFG
# [4] = Critical micellar concentration by surface tension; type: physicochemical; conditions: […] NaCl water solution
# Method: The critical micellar concentration (CMC) was determined by surface tension (ST) measurements using a maximum bubble-pressure method which give surface tension values […] by potential impurities like static methods are. The tensiometer was a […] Research Corp., Milwaukee, Wis.) equipped with two glass probes of 0.5 and 4.0 mm diameters connected to a source of nitrogen. […] The surface tension values were plotted against the logarithm of the bile salt concentration; the regression lines corresponding to the two parts of the curve (monomeric and micellar phases) were calculated using the method of least squares, and the intersection of the lines was taken as the CMC value. From the ST vs concentration curves the value of the surface tension at the CMC (equilibrium between monomers and multimers species) was also calculated giving information about the detergency power which is related to the size of the micelles with associate surface tension lowering capacity. The CMC was evaluated by surface tension measurements in non equilibrium conditions i.e. in conditions that impurities slightly affect the surface tension results (FIG. 10).
# TGR5 = target: T6, TGR5 (Homo sapiens, UniProt Q8TDU6); experiment: TGR5 receptor in vitro assay (Table 1); type: cell-based
# T6 sequence (Q8TDU6 1-330): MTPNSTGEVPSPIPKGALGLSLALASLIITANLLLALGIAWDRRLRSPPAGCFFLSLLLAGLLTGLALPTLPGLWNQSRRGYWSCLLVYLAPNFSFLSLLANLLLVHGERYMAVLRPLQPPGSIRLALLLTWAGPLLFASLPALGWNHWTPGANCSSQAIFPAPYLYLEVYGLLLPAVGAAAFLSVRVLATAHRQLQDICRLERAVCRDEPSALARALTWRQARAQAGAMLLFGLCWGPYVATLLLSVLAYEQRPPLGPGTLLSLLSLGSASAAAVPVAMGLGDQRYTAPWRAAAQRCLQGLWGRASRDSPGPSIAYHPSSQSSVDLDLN
# intestinal bacteria = experiment: Metabolic stability in human stool culture (7α-dehydroxylation); type: in vitro ADME
# Method: Homogenized fresh human stools (500 mg) were transferred into sterile vials to which 5 mL of sterilized chopped meat-glucose medium (Scott Lab., Fiskville, R.I.) was added. BA was then added at a final concentration of 0.05 mM. […] The samples were centrifuged at 3500 rpm for 10 min; from the supernatant the BA were isolated by C-18 solid-phase extraction and analyzed by TLC and HPLC-ES-MS/MS.
# Thin-layer chromatography (TLC), utilizing silica gel 0.25 mm thickness plates (Merck, Darmstat, Germany), was employed as the first screening test. The solvent system used for the separation of conjugated BA was composed of propionic acid/isoamyl acetate/water/N-propanol (3:4:1:2, v/v/v/v; solvent I), and that of the unconjugated BA was acetic acid/carbon tetrachloride/isopropyl ether/isoamyl acetate/water/N-propanol/benzene (1:4:6:8:2:2, v/v/v/v/v/v; solvent II).
# HepG2 cells [5] = experiment: cells; conditions: Homo sapiens, HepG2, 4 h, read-out: APOPTOSIS Caspase-3 activation EC50
# [6] = Octanol/water partition coefficient (shake-flask); type: physicochemical; conditions: pH 8
# HepG2 cells [7] = experiment: cells; conditions: Homo sapiens, HepG2, 4 h, read-out: NECROSIS LDH release EC50
# PPARδ = target: T7, PPARδ (Homo sapiens, UniProt Q03181); experiment: PPARδ coactivator recruitment assay
# T7 sequence (Q03181 211-439 limits assumed): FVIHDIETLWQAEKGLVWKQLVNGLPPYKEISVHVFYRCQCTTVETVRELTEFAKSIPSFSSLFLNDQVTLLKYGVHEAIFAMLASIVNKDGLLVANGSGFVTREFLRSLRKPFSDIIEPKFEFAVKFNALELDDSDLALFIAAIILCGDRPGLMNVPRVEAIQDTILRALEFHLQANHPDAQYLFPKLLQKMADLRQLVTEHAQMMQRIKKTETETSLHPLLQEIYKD
# [8] = Biliary secretion and metabolism in bile fistula rat, id and iv infusion; conditions: rat, bile, 1 μmol/kg/min
# bovine serum albumin [9] = target: T4, bovine serum albumin; conditions: values from literature; cited from earlier work
# [10] = values from literature; cited from earlier work
# [11] = values from literature; cited from earlier work; remark: listed apart in the source
# [12] = values from literature; cited from earlier work; remark: listed apart in the source
# in vitro [13] = conditions: human, HepG2 cells
# wild-type mice = experiment: Locomotor activity of wild-type mice given Ex-4; type: in vivo, mouse
# Source text: To further evaluate the metabolic role of enhanced TGR5 signaling, we assessed the impact of transgenic overexpression of TGR5 in vivo in the context of DIO in mice. TGR5 transgenic mice (TGR5-Tg) were generated by oocyte injection of the bacterial artificial chromosome (BAC) RP23-278N1. […] The absence of weight gain in TGR5-Tg mice, in the wake of an increase in energy expenditure, was explained by a reduction of locomotor activity. Since GLP-1 receptor knockout mice display a marked hyperactivity (Hansotia et al., 2007, J. Clin. Invest. 117, 143-152), we administered the GLP-1 receptor agonist Ex-4 to wild-type mice in order to assess whether the decrease in locomotor activity in TGR5-Tg mice could be linked to GLP-1 secretion.
compound,measurement,setting,value
"O=c1ccc2ccc(O)cc2o1 [7-Hydroxy Coumarine, reference compound]",half-life,in vitro [1],8.5 min
"C[C@H](CCC(=O)O)[C@H]1CC[C@H]2[C@@H]3[C@H](O)C[C@@H]4C[C@H](O)CC[C@]4(C)[C@H]3C[C@H](O)[C@]12C [CA, cholic acid]",prevention and treatment of metabolic syndrome,diet-induced obese mice,efficiently prevents and treats metabolic syndrome
same,LXRα Activation EC50,LXRα,No activity
same,SV0: maximum bile secretion rate,[2]; id infusion,64 ± 6 (μL/min)/kg bw
same,SV0: maximum bile secretion rate,[2]; iv infusion,(78 ± 8) (μL/min)/kg bw
same,FXR Activation EC50,FXR,No activity
"C[C@H](CCC(=O)O)[C@H]1CC[C@H]2[C@@H]3[C@H](O)C[C@@H]4C[C@H](O)CC[C@]4(C)[C@H]3CC[C@]12C [CDCA, ChenoDeoxyCholicAcid]",EC50,CAR; read-out: CAR Activation EC50,> 250 µM
same,Albumin Binding,bovine serum albumin [3],93%
same,VDR Activation EC50,VDR,No activity
same,CMC […] Na+,[4],3.2 mM
same,STCMC (surface tension at CMC),[4],45.5 Dyne/cm
same,LXRα Activation EC50,LXRα,No activity
same,maximum bile flow rate,"[2]; duodenal infusion 1 μmol/kg/min, 1 hour",≤ 4.8 mL/h/kg
same,SV0: maximum bile secretion rate,[2]; id infusion,57 ± 7 (μL/min)/kg bw
same,SV0: maximum bile secretion rate,[2]; iv infusion,(51 ± 9) (μL/min)/kg bw
same,TGR5 Data Efficacy,TGR5,100%
same,metabolism (7-dehydroxylation) to lithocholic acid,intestinal bacteria,almost completely metabolized
same,half-life time,intestinal bacteria; human,almost one hour
same,EC50,HepG2 cells [5],890 µM
same,"LogPA- (1-octanol-water partition coefficient, ionized species)",[6],2.2
same,EC50,HepG2 cells [7],> 1000 µM
same,PPARδ Activation EC50,PPARδ,No activity
same,fraction unbound at 4 h,[8]; iv,0.04
same,fraction unbound at 4 h,[8]; other: duodenal infusion (id),0.03 ± 0.01
C[C@H](CCC(=O)O)[C@H]1CCC2C3C(CC[C@@]21C)[C@@]1(C)CC[C@@H](O)CC1[C@@H](C)[C@@H]3O (stereo partly shown) [Compound 6MUDCA],Albumin Binding,bovine serum albumin [9],80* %
same,CMC […] Na+,[10],4.2* mM
same,"Ws (water solubility, protonated species)",[11],28* μM
same,"LogPA- (1-octanol-water partition coefficient, ionized species)",[12],1.3*
"C[C@H](CCC(=O)O)[C@H]1CC[C@H]2[C@@H]3CC[C@@H]4C[C@H](O)CC[C@]4(C)[C@H]3CC[C@]12C [LCA, lithocholic acid]",CAR Activation EC50,CAR,No activity
same,EC50 at 4 h,in vitro [13],84 µM
same,VDR Activation EC50,VDR,No activity
same,LXRα Activation EC50,LXRα,No activity
same,EC50,HepG2 cells [5],65 µM
same,FXR Activation EC50,FXR,No activity
same,EC50,HepG2 cells [7],105 µM
same,PPARδ Activation EC50,PPARδ,No activity
Ex-4: the GLP-1 receptor agonist Ex-4,locomotor activity,wild-type mice,efficiently and dose-dependently reduced locomotor activity
